US20030212142A1, “Use of derivatives of valproic acid and 2-valproenic acid amides for the treatment of mania in bipolar disorder” (Yissum Research Development Company of the Hebrew …, priority 2000, published 2003)
Entries after “also recorded” stand apart in the source; their conditions may differ.

System: amphetamine-induced hyperactivity
Assay: amphetamine-induced hyperactivity model of mania in rats (activity meter, rearing)
Type: in vivo, male Sprague Dawley rats
Settings: Compound 1 200 mg/kg by gavage; for Vertical Activity (Rearing), Mean Activity, Amphetamine challenge: amphetamine 0.5 mg/kg s.c. challenge; for Vertical Activity (Rearing), Mean Activity, Amphetamine challenge / Vertical Activity (Rearing), Mean activity, Saline challenge: movements per 30 min, Li+ 6 mg/kg by gavage; for Vertical Activity (Rearing), Mean activity, Saline challenge: saline s.c. challenge
Protocol: Evaluation of possible anti-bipolar effects of Compound 1 was followed in the amphetamine-induced hyperactivity model of mania in rats. Activities of rats were followed in an activity meter (Elvicom, Israel) based on 2 levels laser beams and equipped with a computerized system that can count the vertical movements of rats (rearing). Activities were recorded for -30 min for each session, and the resultant appropriate movement reported per 30 min. Rats were housed under a 12 hr light/dark cycle and the behavioral testing was conducted in the light phase.
The activities of rats following treatment with Compound 1, Li^+ (the standard drug for mania), and a control group were followed before and after being challenged with amphetamine. The statistical analyses were conducted using a two way ANOVA for the effects of drugs, amphetamine (repeated measure) and the drug-amphetamine interaction.
In these experiments 30 male Sprague Dawley (weighing 200-250 g) rats were equally divided into 3 treatment groups: control, Li^+ (6 mg/kg by gavage)), and Compound 1 (200 mg/kg by gavage) (Drugs were suspended in 5% methyl cellulose). Half of the rats in each group were challenged (administered) amphetamine (0.5 mg/kg subsutaneously (s.c.)) and the other half was given saline (s.c.). Ten minutes later all rats were placed in the activity meter. One week later the procedure was repeated, except that the order of treatment was reversed; those rats which received saline on the first day were given amphetamine and those given amphetamine the first day were administered saline.

SMILES | Vertical Activity (Rearing), Mean Activity, Amphetamine challenge | effect on amphetamine-induced rearing compared to control animals challenged with amphetamine (amphetamine 0.5 mg/kg s.c., p=0.06) | Vertical Activity (Rearing), Mean activity, Saline challenge
CCCC(CCC)C(=O)NCC(N)=O [Compound 1] | 71.3 | decreases amphetamine-induced hyperactivity; also recorded: reduced the rearing; also recorded: decreased the induced rearing in a similar manner as Li^+ | 34.1
[Li] [Li, lithium, reference compound] | 126.7 | – | 59.8
